According to PubChem BioAssay AID1963974 (Molecular Pharmacology Branch, DTP, NCI, 2024):
Where “and” joins values, the source holds several entries; their conditions need not be identical. Equal entries are not always repeated.

System: 648629-189-R-J1-PDC spheroids with HUVEC/MSC, viability
Assay: Anticancer human tumor 648629-189-R-J1-PDC patient-derived bladder carcinoma cell line growth inhibition [PI3K]
Conditions: for viability, T/C: stronger effect = lower value
Outline: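 Tumor cells grown as multi-cell spheroids with HUVEC endothelial cells and MSC fibroblast-like stroma were treated with targeted agents combined with inavolisib, alpelisib, duvelisib or copanlisib. Doses fell in half-log steps from near clinical Cmax, else from 10 microM. Viability was measured.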

[1] = curve of first compound, second compound 0.0316 µM
[2] = curve of first compound, second compound 0.1 µM
[3] = curve of first compound, second compound 0.316 µM
[4] = curve of first compound, second compound 1 µM
[5] = curve of first compound, second compound 3.16 µM
[6] = curve of first compound, second compound 10 µM
[7] = second compound 0.0316 µM, first compound 0.0316 µM
[8] = second compound 0.0316 µM, first compound 0.1 µM
[9] = second compound 0.0316 µM, first compound 0.316 µM
[10] = second compound 0.0316 µM, first compound 1 µM
[11] = second compound 0.0316 µM, first compound 3.16 µM
[12] = second compound 0.0316 µM, first compound 10 µM
[13] = second compound 0.1 µM, first compound 0.0316 µM
[14] = second compound 0.1 µM, first compound 0.1 µM
[15] = second compound 0.1 µM, first compound 0.316 µM
[16] = second compound 0.1 µM, first compound 1 µM
[17] = second compound 0.1 µM, first compound 3.16 µM
[18] = second compound 0.1 µM, first compound 10 µM
[19] = second compound 0.316 µM, first compound 0.0316 µM
[20] = second compound 0.316 µM, first compound 0.1 µM
[21] = second compound 0.316 µM, first compound 0.316 µM
[22] = second compound 0.316 µM, first compound 1 µM
[23] = second compound 0.316 µM, first compound 3.16 µM
[24] = second compound 0.316 µM, first compound 10 µM
[25] = second compound 1 µM, first compound 0.0316 µM
[26] = second compound 1 µM, first compound 0.1 µM
[27] = second compound 1 µM, first compound 0.316 µM
[28] = second compound 1 µM, first compound 1 µM
[29] = second compound 1 µM, first compound 3.16 µM
[30] = second compound 1 µM, first compound 10 µM
[31] = second compound 3.16 µM, first compound 0.0316 µM
[32] = second compound 3.16 µM, first compound 0.1 µM
[33] = second compound 3.16 µM, first compound 0.316 µM
[34] = second compound 3.16 µM, first compound 1 µM
[35] = second compound 3.16 µM, first compound 3.16 µM
[36] = second compound 3.16 µM, first compound 10 µM
[37] = second compound 10 µM, first compound 0.0316 µM
[38] = second compound 10 µM, first compound 0.1 µM
[39] = second compound 10 µM, first compound 0.316 µM
[40] = second compound 10 µM, first compound 1 µM
[41] = second compound 10 µM, first compound 3.16 µM
[42] = second compound 10 µM, first compound 10 µM
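Further: spheroids exposed to agents for seven days before reading.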
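Wherever viability, T/C is given: percent of vehicle control luminescence where 100% = DMSO treated spheroids.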

Cn1cnc2c(F)c(Nc3ccc(Br)cc3Cl)c(C(=O)NOCCO)cc21 + Cc1nc(NC(=O)N2CCCC2C(N)=O)sc1-c1ccnc(C(C)(C)C(F)(F)F)c1
IC50 [1]: > 3 µM | IC50 [2]: > 3 µM | IC50 [3]: > 3 µM | IC50 [4]: > 3 µM | IC50 [5]: > 3 µM | IC50 [6]: < 0.00949 µM | viability, T/C (second compound 0.0316 µM, first compound 0.00949 µM): 94.3% | viability, T/C (second compound 0.0316 µM, first compound 0.03 µM): 95.2% | viability, T/C (second compound 0.0316 µM, first compound 0.0949 µM): 99% | viability, T/C (second compound 0.0316 µM, first compound 0.3 µM): 90% | viability, T/C (second compound 0.0316 µM, first compound 0.949 µM): 93% | viability, T/C (second compound 0.0316 µM, first compound 3 µM): 70.5% | viability, T/C (second compound 0.1 µM, first compound 0.00949 µM): 92.8% | viability, T/C (second compound 0.1 µM, first compound 0.03 µM): 90.7% | viability, T/C (second compound 0.1 µM, first compound 0.0949 µM): 98.1% | viability, T/C (second compound 0.1 µM, first compound 0.3 µM): 95.4% | viability, T/C (second compound 0.1 µM, first compound 0.949 µM): 86.2% | viability, T/C (second compound 0.1 µM, first compound 3 µM): 75.8% | viability, T/C (second compound 0.316 µM, first compound 0.00949 µM): 94.6% | viability, T/C (second compound 0.316 µM, first compound 0.03 µM): 93.8% | viability, T/C (second compound 0.316 µM, first compound 0.0949 µM): 77.2% | viability, T/C (second compound 0.316 µM, first compound 0.3 µM): 85.2% | viability, T/C (second compound 0.316 µM, first compound 0.949 µM): 81.7% | viability, T/C (second compound 0.316 µM, first compound 3 µM): 72.4% | viability, T/C (second compound 1 µM, first compound 0.00949 µM): 80.7% | viability, T/C (second compound 1 µM, first compound 0.03 µM): 78.2% | viability, T/C (second compound 1 µM, first compound 0.0949 µM): 71.3% | viability, T/C (second compound 1 µM, first compound 0.3 µM): 75.5% | viability, T/C (second compound 1 µM, first compound 0.949 µM): 72.9% | viability, T/C (second compound 1 µM, first compound 3 µM): 64.2% | viability, T/C (second compound 3.16 µM, first compound 0.00949 µM): 54.6% | viability, T/C (second compound 3.16 µM, first compound 0.03 µM): 60.1% | viability, T/C (second compound 3.16 µM, first compound 0.0949 µM): 59.2% | viability, T/C (second compound 3.16 µM, first compound 0.3 µM): 52.1% | viability, T/C (second compound 3.16 µM, first compound 0.949 µM): 57.1% | viability, T/C (second compound 3.16 µM, first compound 3 µM): 52.7% | viability, T/C (second compound 10 µM, first compound 0.00949 µM): 39.5% | viability, T/C (second compound 10 µM, first compound 0.03 µM): 34.4% | viability, T/C (second compound 10 µM, first compound 0.0949 µM): 34.7% | viability, T/C (second compound 10 µM, first compound 0.3 µM): 40.2% | viability, T/C (second compound 10 µM, first compound 0.949 µM): 44.8% | viability, T/C (second compound 10 µM, first compound 3 µM): 38.1%

C#Cc1c(F)ccc2cc(O)cc(-c3ncc4c(N5CC6CCC(C5)N6)nc(OCC56CCCN5CC(F)C6)nc4c3F)c12 (stereo not given)
viability, T/C (compound 0.0316 µM): 105% [middle of 4 runs] | viability, T/C (compound 0.316 µM): 111% and 104% (2×) and 105% | viability, T/C (compound 1 µM): 104% [middle of 4 runs] | viability, T/C (compound 3.16 µM): 107% [middle of 4 runs] | viability, T/C (compound 10 µM): 108% and 105% (2×) and 101% | IC50 (curve of compound): > 10 µM

C=CC(=O)N1CCN(c2nc(=O)n(-c3c(C)ccnc3C(C)C)c3nc(-c4c(O)cccc4F)c(F)cc23)C(C)C1 (stereo not given) + Cc1nc(NC(=O)N2CCCC2C(N)=O)sc1-c1ccnc(C(C)(C)C(F)(F)F)c1
IC50 [1]: > 10 µM | IC50 [2]: > 10 µM | IC50 [3]: > 10 µM | IC50 [4]: > 10 µM | IC50 [5]: > 10 µM | IC50 [6]: < 0.0316 µM | viability, T/C [7]: 99% | viability, T/C [8]: 101% | viability, T/C [9]: 107% | viability, T/C [10]: 105% | viability, T/C [11]: 113% | viability, T/C [12]: 82.8% | viability, T/C [13]: 92.2% | viability, T/C [14]: 102% | viability, T/C [15]: 107% | viability, T/C [16]: 99% | viability, T/C [17]: 106% | viability, T/C [18]: 90.3% | viability, T/C [19]: 83.5% | viability, T/C [20]: 95% | viability, T/C [21]: 95.6% | viability, T/C [22]: 96.3% | viability, T/C [23]: 107% | viability, T/C [24]: 84.7% | viability, T/C [25]: 73.4% | viability, T/C [26]: 82.7% | viability, T/C [27]: 87.5% | viability, T/C [28]: 86.5% | viability, T/C [29]: 88.2% | viability, T/C [30]: 79.7% | viability, T/C [31]: 61.2% | viability, T/C [32]: 57.5% | viability, T/C [33]: 65% | viability, T/C [34]: 72% | viability, T/C [35]: 72.5% | viability, T/C [36]: 70.8% | viability, T/C [37]: 39.5% | viability, T/C [38]: 40.7% | viability, T/C [39]: 42.4% | viability, T/C [40]: 41.5% | viability, T/C [41]: 47.1% | viability, T/C [42]: 38.4%

CNC(=O)c1ccc(N2C(=S)N(c3ccc(C#N)c(C(F)(F)F)c3)C(=O)C2(C)C)cc1F + CC(Nc1ncnc2nc[nH]c12)c1cc2cccc(Cl)c2c(=O)n1-c1ccccc1
IC50 [1]: > 10 µM | IC50 [2]: > 10 µM | IC50 [3]: > 10 µM | IC50 [4]: > 10 µM | IC50 [5]: > 10 µM | IC50 [6]: > 10 µM | viability, T/C [7]: 113% | viability, T/C [8]: 107% | viability, T/C [9]: 101% | viability, T/C [10]: 102% | viability, T/C [11]: 102% | viability, T/C [12]: 87.4% | viability, T/C [13]: 113% | viability, T/C [14]: 98.9% | viability, T/C [15]: 96.6% | viability, T/C [16]: 97.8% | viability, T/C [17]: 92.8% | viability, T/C [18]: 80.2% | viability, T/C [19]: 105% | viability, T/C [20]: 111% | viability, T/C [21]: 93.5% | viability, T/C [22]: 104% | viability, T/C [23]: 118% | viability, T/C [24]: 78.9% | viability, T/C [25]: 99% | viability, T/C [26]: 101% | viability, T/C [27]: 100% | viability, T/C [28]: 97.1% | viability, T/C [29]: 105% | viability, T/C [30]: 88.5% | viability, T/C [31]: 92% | viability, T/C [32]: 109% | viability, T/C [33]: 93.9% | viability, T/C [34]: 95.3% | viability, T/C [35]: 95.5% | viability, T/C [36]: 90.8% | viability, T/C [37]: 82.7% | viability, T/C [38]: 87.1% | viability, T/C [39]: 100% | viability, T/C [40]: 91.1% | viability, T/C [41]: 87.7% | viability, T/C [42]: 69%

CC(Nc1ncnc2nc[nH]c12)c1cc2cccc(Cl)c2c(=O)n1-c1ccccc1 (stereo not given)
viability, T/C (compound 0.0316 µM): 104% [middle of 8 runs] | viability, T/C (compound 0.1 µM): 104% [middle of 8 runs] | viability, T/C (compound 0.316 µM): 103% [middle of 8 runs] | viability, T/C (compound 1 µM): 97.5% [middle of 8 runs] | viability, T/C (compound 3.16 µM): 97.1% [middle of 8 runs] | viability, T/C (compound 10 µM): 90.1% [middle of 8 runs] | IC50 (compound alone, run of 04/25/2023): > 10 µM

Cn1ncc(Cl)c1-c1cc(C(=O)NC(CN)Cc2cccc(F)c2)sc1Cl (stereo not given)
viability, T/C (compound 0.0316 µM): 111% [middle of 4 runs] | viability, T/C (compound 0.1 µM): 86.8% [middle of 4 runs] | viability, T/C (compound 0.316 µM): 72.9% [middle of 4 runs] | viability, T/C (compound 1 µM): 35.3% [middle of 4 runs] | viability, T/C (compound 3.16 µM): 25% [middle of 4 runs] | IC50 (curve of compound): 818 nM [middle of 4 runs]
